Experimental data as given in US20220133669A1, “PHARMACEUTICAL COMPOSITIONS COMPRISING 15-HETRE AND METHODS OF USE THEREOF” (DS Biopharma Limited, priority 2020, published 2022).

How the values were obtained:
human islet microtissue [1] = assay: Cytotoxicity pretest: ATP content (CellTiter-Glo cell viability) in islet microtissues; format: cell-based; details: after 7 days of treatment
Experimental: (§1) From Days 0-7, a human islet microtissue was established. On Day 7, 15-HETrE treatment commenced. From Days 9-12, the culture media was renewed and the compound (15-HETrE) was re-dosed. On Day 14, an assessment on islet cell viability was performed—tissues were lysed to measure ATP content using Promega CellTiter-Glo luminescent cell viability assay. On Day 14, an assessment on islet cell function was also performed—conditioned media from the last 48 hours of the experiment was collected to test chronic insulin secretion. And lastly, on Day 14, insulin was quantified—following dilutions in Krebs-Ringer HEPES buffer, chronic insulin secretion was quantified using STELLUX Chemi Human Insulin ELISA assay.

human islet microtissue [2] = assay: Cytotoxicity pretest: chronic insulin secretion (Human Insulin ELISA) of islet microtissues; format: cell-based; details: 300 μM; after 7 days of treatment
Experimental: as §1

human islet microtissue [3] = assay: 15-HETrE efficacy: human islet microtissue function under glucotoxic conditions; format: cell-based
Experimental: (§2) The aim of the following study was to determine the effects of 15(S)-HETrE activity on diabetes. This aim was accomplished by (1) identifying a cytotoxic threshold of 15(S)-HETrE in islet microtissues and (2) testing the effects of 15(S)-HETrE on human islet microtissue function under conditions of glucotoxicity and cytokine stress.
(§3) From Days 0-13, an islet microtissue model was established and glucotoxicity pre-test performed. Day 14 marked the start of glucotoxicity assay and 12.5 μM, 25 μM and 50 μM 15(S)-HETrE treatment. From Days 16-19, the culture media was renewed, and the compound (15-HETrE) was re-dosed. Day 12 marked the start of the cytokine stress assay for the 12.5 μM, 25 μM and 50 μM 15(S)-HETrE treatment. On Day, 12 an intermediate assessment of the compound effects was also performed (e.g., Day 7 incubation in glucotoxic conditions). On Day 12, a renewal of the culture media and compound treatment was performed. On Days 23 and 26, a renewal of the culture media and compound treatment was also performed. Lastly, on Day 28, an assessment of the compound effects under glucotoxicity/cytokine stress at the end of 14- and 7-day incubation was performed.

human islet microtissue [4] = assay: 15-HETrE efficacy: human islet microtissue under cytokine stress; format: cell-based; details: 50 μM
Experimental: as §2, §3

[5] = Tissue distribution following oral administration of 15-HETrE; format: in vivo, rats; details: 500 mg/kg p.o. once daily for 7 days; tissues taken 24 hours after final dose
Experimental: The objective of this study was to examine distribution of orally administered 15-HETrE. Male CRL:CD rats were obtained from Charles River Laboratories. Upon receipt, animals were allowed to acclimatize for 5 days prior to start of testing, housed under a 12 h light/dark cycle, and provided a pellet diet (RM-1) and water ad libitum. Animals were dosed with 15-HETrE or vehicle (0.5% HPMC in ASTM Type 1 water) p.o. once daily for 7 days. Animals were monitored at 0.25, 0.5, and 1 hour post dose. During the treatment period, individual body weight was measured daily as well as clinical signs of behavior and survival.
24 hours after the final p.o. dose, each animal was killed by anaesthetic overdose with an intraperitoneal injection of pentobarbitone. A blood sample was collected from the descending vena cava. Lungs, heart, liver, kidneys, spleen, colon, and an area of shaved skin were harvested from each animal, rinsed in PBS, dabbed dry, weighed, and snap-frozen by immersion in liquid nitrogen. All tissue samples were stored frozen at −80° C.

ATP content (human islet microtissue [4])	Compound	ATP content (human islet microtissue [1]; 11.1 μM)	ATP content (human islet microtissue [1]; 300 μM)	chronic insulin secretion (human islet microtissue [2])	fold stimulation of insulin secretion (human islet microtissue [3]; 25 μM, day 14)	ATP levels (human islet microtissue [3]; 50 μM)	chronic insulin secretion (human islet microtissue [3]; day 7)	stimulated insulin secretion (human islet microtissue [3]; day 7, 50 μM)	basal insulin secretion (human islet microtissue [3]; day 7, 12.5, 25 and 50 μM)	chronic insulin secretion (human islet microtissue [3]; day 14)	basal insulin secretion (human islet microtissue [3]; day 14, 12.5, 25 and 50 μM)	tissue distribution of 15-HETrE (heart, kidney, liver, spleen, lung, plasma, skin, colon) vs control animals [5]
significant decrease	CCCCC[C@H](O)/C=C/C=C\C/C=C\CCCCCCC(=O)O [15(S)-HETrE]	significant increase	significant decrease	significant decrease	improved	significantly decreased	reduced	significant decrease	dose-dependent decrease	reduced	dose-dependent decrease	–
–	CCCCCC(O)/C=C/C=C\C/C=C\CCCCCCC(=O)O (stereo not drawn) [15-HETrE, 15-hydroxy-eicosa-8(Z),11(Z),13(E)-trienoic acid]	–	–	–	–	–	–	–	–	–	–	targeted all organs tested, including the skin
